Results as given in patent US20230381280A1, “NEW DOSAGE REGIMEN FOR INHALED VASOACTIVE INTESTINAL POLYPEPTIDE” (priority 2020, published 2023).

Test system: COVID-19 pulmonary involvement

**Q.** Which results are given for `CC[C@H](C)[C@H](NC(=O)[C@H](CO)NC(=O)[C@H](CC(N)=O)NC(=O)[C@H](CC(C)C)NC(=O)[C@H](Cc1ccc(O)cc1)NC(=O)[C@H](CCCCN)NC(=O)[C@H](CCCCN)NC(=O)[C@@H](NC(=O)[C@H](C)NC(=O)[C@H](CCSC)NC(=O)[C@H](CCC(N)=O)NC(=O)[C@H](CCCCN)NC(=O)[C@H](CCCNC(=N)N)NC(=O)[C@H](CC(C)C)NC(=O)[C@H](CCCNC(=N)N)NC(=O)[C@@H](NC(=O)[C@H](Cc1ccc(O)cc1)NC(=O)[C@H](CC(N)=O)NC(=O)[C@H](CC(=O)O)NC(=O)[C@@H](NC(=O)[C@H](Cc1ccccc1)NC(=O)[C@@H](NC(=O)[C@H](C)NC(=O)[C@H](CC(=O)O)NC(=O)[C@H](CO)NC(=O)[C@@H](N)Cc1c[nH]cn1)C(C)C)[C@@H](C)O)[C@@H](C)O)C(C)C)C(=O)N[C@@H](CC(C)C)C(=O)N[C@@H](CC(N)=O)C(N)=O` [Aviptadil]?
**A.** Entering Intensive Care (%) (Age >=60, treatment group): 25%; Tolerability (human, in vivo): well tolerated
